Laboratory results: patent US20250195511A1, “INDAZOLE DERIVATIVES USEFUL AS INHIBITORS OF NOD-LIKE RECEPTOR PROTEIN 3” (Merck Sharp & Dohme LLC, priority 2023, published 2025)

System: NLRP3 inflammasome
Test: NLRP3 inflammasome activation: ASC-SPECK formation in gramicidin-stimulated THP-1 cells
Format: cell-based
Conditions: PMA-treated human monocytic THP-1 cells, compound 1 h before 12.5 μg/ml gramicidin, 3-hour treatment
Outline: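 Undifferentiated human THP-1 cells primed overnight with 10 ng/ml PMA, then given compounds 1 h before 12.5 μg/ml gramicidin for 3 h at 37° C in RPMI with 0.01% BSA. Fixed cells immunostained for ASC with DRAQ5 nuclear counterstain; DRAQ5-positive cells with ASC specks counted by high-content imaging; EC50 from curve fitting.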

[1] = inhibition of ASC SPECK formation
[2] = Homo sapiens, THP-1, inhibition of ASC SPECK formation

| SMILES | EC50 [1] [nM] | EC50 [2] [nM] |
| --- | --- | --- |
| CCN1CC(n2cc3ncc(-c4c(C)cc(C(F)(F)F)cc4O)nc3n2)CCC1=O (single isomer, unassigned) [Example 65, (S or R)-1-ethyl-5-(6-(2-hydroxy-6-methyl-4-(trifluoromethyl)phenyl)-2H-pyrazolo[3,4-b]pyrazin-2-yl)piperidin-2-one] | 79 |  |
| Cc1cc(C(F)(F)F)cc(O)c1-c1cnc2cn(C3CCC(=O)N(C(C)C)C3)nc2n1 (single isomer, unassigned) [Example 61, (S or R)-5-(6-(2-hydroxy-6-methyl-4-(trifluoromethyl)phenyl)-2H-pyrazolo[3,4-b]pyrazin-2-yl)-1-isopropylpiperidin-2-one] | 101 |  |
| Cc1cc(C(F)(F)F)cc(O)c1-c1cnc2cn(C34CC(F)(C3)C4)nc2n1 [Example 48, 2-[2-(3-fluoro-1-bicyclo[1.1.1]pentanyl)pyrazolo[3,4-b]pyrazin-6-yl]-3-methyl-5-(trifluoromethyl)phenol] |  | 65 |
| Cc1cc(C(F)(F)F)cc(O)c1-c1cnc2cn(C3CCP(C)(=O)CC3)nc2n1 (single isomer, unassigned) [Example 82, (1R,4R or 1S,4S)-4-(6-(2-hydroxy-6-methyl-4-(trifluoromethyl)phenyl)-2H-pyrazolo[3,4-b]pyrazin-2-yl)-1-methylphosphinane 1-oxide] |  | 189 |
| Cc1cc(C(F)(F)F)cc(O)c1-c1cnc2cn([C@@H]3CCOC[C@@H]3C)nc2n1 (single isomer, unassigned) [Example 85, 3-methyl-2-(2-((3R,4R or 3S,4S)-3-methyltetrahydro-2H-pyran-4-yl)-2H-pyrazolo[3,4-b]pyrazin-6-yl)-5-(trifluoromethyl)phenol] | 42 |  |
| Cc1cc(C(F)(F)F)cc(O)c1-c1cnc2cn(C34COCC3C4)nc2n1 (single isomer, unassigned) [Example 84, 2-(2-((1S,5S or 1R,5R)-3-oxabicyclo[3.1.0]hexan-1-yl)-2H-pyrazolo[3,4-b]pyrazin-6-yl)-3-methyl-5-(trifluoromethyl)phenol] | 60 |  |
| Cc1cc(C(F)(F)F)cc(O)c1-c1cnc2cn([C@H]3C[C@@H](CC#N)C3)nc2n1 [Example 18, 2-((1s,3s)-3-(6-(2-hydroxy-6-methyl-4-(trifluoromethyl)phenyl)-2H-pyrazolo[3,4-b]pyrazin-2-yl)cyclobutyl)acetonitrile] |  | 465 |
| Cc1cc(C(F)(F)F)cc(O)c1-c1cnc2cn(C34COC(C)(C3)C4)nc2n1 [Example 27, 3-methyl-2-[2-(1-methyl-2-oxabicyclo[2.1.1]hexan-4-yl)pyrazolo[3,4-b]pyrazin-6-yl]-5-(trifluoromethyl)phenol] |  | 193 |
| Cc1cc(C(F)(F)F)cc(O)c1-c1cnc2cn(C3COC4CC3C4)nc2n1 (racemic) [Example 25, (S and R)-2-(2-(2-oxabicyclo[3.1.1]heptan-4-yl)-2H-pyrazolo[3,4-b]pyrazin-6-yl)-3-methyl-5-(trifluoromethyl)phenol] |  | 261 |
| Cc1cc(C(F)(F)F)cc(O)c1-c1cnc2cn(C3CCc4nnn(C)c4C3)nc2n1 (single isomer, unassigned) [Example 69, (S or R)-3-methyl-2-(2-(1-methyl-4,5,6,7-tetrahydro-1H-benzo[d][1,2,3]triazol-6-yl)-2H-pyrazolo[3,4-b]pyrazin-6-yl)-5-(trifluoromethyl)phenol] | 15 |  |
| Cc1cc(C(F)(F)F)cc(O)c1-c1cnc2cn(C[C@H]3CNC(=O)C3)nc2n1 [Example 7, (R)-4-((6-(2-hydroxy-6-methyl-4-(trifluoromethyl)phenyl)-2H-pyrazolo[3,4-b]pyrazin-2-yl)methyl)pyrrolidin-2-one] |  | 46 |
| Cc1cc(C(F)(F)F)cc(O)c1-c1cnc2cn([C@H]3CCO[C@@H](C)C3)nc2n1 (single isomer, unassigned) [Example 93, 3-methyl-2-(2-((2S,4S or 2R,4R)-2-methyltetrahydro-2H-pyran-4-yl)-2H-pyrazolo[3,4-b]pyrazin-6-yl)-5-(trifluoromethyl)phenol] | 332 |  |
| Cc1cc(C(F)(F)F)cc(O)c1-c1cnc2cn([C@H]3COCC[C@@H]3O)nc2n1 [Example 35, (3S,4S)-3-[6-[2-hydroxy-6-methyl-4-(trifluoromethyl)phenyl]pyrazolo[3,4-b]pyrazin-2-yl]tetrahydropyran-4-ol] |  | 37 |
| Cc1cc(C(F)(F)F)cc(O)c1-c1cnc2cn(C3(C)CCOC3)nc2n1 (single isomer, unassigned) [Example 79, (R or S)-3-methyl-2-(2-(3-methyltetrahydrofuran-3-yl)-2H-pyrazolo[3,4-b]pyrazin-6-yl)-5-(trifluoromethyl)phenol] | 173 |  |
| Cc1cc(C(F)(F)F)cc(O)c1-c1cnc2cn(C34COCC(C3)C4)nc2n1 [Example 14, 2-(2-(3-oxabicyclo[3.1.1]heptan-1-yl)-2H-pyrazolo[3,4-b]pyrazin-6-yl)-3-methyl-5-(trifluoromethyl)phenol] |  | 154 |
| Cc1cc(C(F)(F)F)cc(O)c1-c1cnc2cn(C3CC4CCC(C3)O4)nc2n1 (stereo not drawn) [Example 45, 3-methyl-2-[2-(8-oxabicyclo[3.2.1]octan-3-yl)pyrazolo[3,4-b]pyrazin-6-yl]-5-(trifluoromethyl)phenol] |  | 70 |
| Cc1cc(C(F)(F)F)cc(O)c1-c1cnc2cn(C34CC(C)(C3)OC4C)nc2n1 (racemic) [Example 24, (S and R)-2-(2-(1,3-dimethyl-2-oxabicyclo[2.1.1]hexan-4-yl)-2H-pyrazolo[3,4-b]pyrazin-6-yl)-3-methyl-5-(trifluoromethyl)phenol] |  | 427 |
| Cc1cc(C(F)(F)F)cc(O)c1-c1cnc2cn(C34CC(CC#N)(C3)C4)nc2n1 [Example 46, 2-[3-[6-[2-hydroxy-6-methyl-4-(trifluoromethyl)phenyl]pyrazolo[3,4-b]pyrazin-2-yl]-1-bicyclo[1.1.1]pentanyl]acetonitrile] |  | 213 |
| CCc1nnc2n1CC(n1cc3ncc(-c4c(C)cc(C(F)(F)F)cc4O)nc3n1)CC2 (single isomer, unassigned) [Example 72, (R or S)-2-(2-(3-ethyl-5,6,7,8-tetrahydro-[1,2,4]triazolo[4,3-a]pyridin-6-yl)-2H-pyrazolo[3,4-b]pyrazin-6-yl)-3-methyl-5-(trifluoromethyl)phenol] | 20 |  |
| Cc1cc(C(F)(F)F)cc(O)c1-c1cnc2cn(C3(C)CCOC3)nc2n1 (single isomer, unassigned) [Example 78, (S or R)-3-methyl-2-(2-(3-methyltetrahydrofuran-3-yl)-2H-pyrazolo[3,4-b]pyrazin-6-yl)-5-(trifluoromethyl)phenol] |  | 198 |
| Cc1cc(C(F)(F)F)cc(O)c1-c1cnc2cn(C34CCC(C#N)(C3)C4)nc2n1 [Example 47, 4-[6-[2-hydroxy-6-methyl-4-(trifluoromethyl)phenyl]pyrazolo[3,4-b]pyrazin-2-yl]bicyclo[2.1.1]hexane-1-carbonitrile] |  | 61 |
| Cc1cc(Cl)cc(O)c1-c1cnc2cn([C@@H]3[C@@H]4COC[C@@H]43)nc2n1 [Example 56, 2-(2-((1R,5S,6S)-3-oxabicyclo[3.1.0]hexan-6-yl)-2H-pyrazolo[3,4-b]pyrazin-6-yl)-5-chloro-3-methylphenol] |  | 42 |
| Cc1cc(C(F)(F)F)cc(O)c1-c1cnc2cn([C@H]3CCO[C@H](C)C3)nc2n1 (single isomer, unassigned) [Example 89, 3-methyl-2-(2-((2R,4S or 2S,4R)-2-methyltetrahydro-2H-pyran-4-yl)-2H-pyrazolo[3,4-b]pyrazin-6-yl)-5-(trifluoromethyl)phenol] | 292 |  |
| Cc1cc(C(F)(F)F)cc(O)c1-c1cnc2cn(C34CCC(C3)C4)nc2n1 [Example 42, 2-[2-(1-bicyclo[2.1.1]hexanyl)pyrazolo[3,4-b]pyrazin-6-yl]-3-methyl-5-(trifluoromethyl)phenol] |  | 70 |
| Cc1cc(C(F)(F)F)cc(O)c1-c1cnc2cn([C@@H]3[C@@H]4COC[C@@H]43)nc2n1 [Example 9, 2-(2-((1R,5S,6S)-3-oxabicyclo[3.1.0]hexan-6-yl)-2H-pyrazolo[3,4-b]pyrazin-6-yl)-3-methyl-5-(trifluoromethyl)phenol] |  | 59 |
| CCOCOc1cc(C(F)(F)F)cc(C)c1-c1cnc2c([C@H](C)O)n(C[C@H]3CC(=O)N(C4CC4)C3)nc2n1 (single isomer, unassigned) [Example 113, (S or R)-1-cyclopropyl-4-((6-(2-(ethoxymethoxy)-6-methyl-4-(trifluoromethyl)phenyl)-3-((S or R)-1-hydroxyethyl)-2H-pyrazolo[3,4-b]pyrazin-2-yl)methyl)pyrrolidin-2-one] |  | 649 |
| Cc1nc2cn(C3CCC(=O)N(C)C3)nc2nc1-c1ccc(C(F)(F)F)cc1O (single isomer, unassigned) [Example 112, (S or R)-5-(6-(2-hydroxy-4-(trifluoromethyl)phenyl)-5-methyl-2H-pyrazolo[3,4-b]pyrazin-2-yl)-1-methylpiperidin-2-one] | 605 |  |
| CCN1CC(n2cc3ncc(-c4c(C)cc(C(F)(F)F)cc4O)nc3n2)CCC1=O (single isomer, unassigned) [Example 64, (R or S)-1-ethyl-5-(6-(2-hydroxy-6-methyl-4-(trifluoromethyl)phenyl)-2H-pyrazolo[3,4-b]pyrazin-2-yl)piperidin-2-one] | 10 |  |
| Cc1cc(C(F)(F)F)cc(O)c1-c1cnc2cn([C@H]3CC[C@@H](O)CC3)nc2n1 [Example 44, 2-(2-((1S,4S)-4-hydroxycyclohexyl)-2H-pyrazolo[3,4-b]pyrazin-6-yl)-3-methyl-5-(trifluoromethyl)phenol] |  | 121 |
| Cc1cc(C(F)(F)F)cc(O)c1-c1cnc2cn([C@H]3CCOC[C@@H]3C)nc2n1 (single isomer, unassigned) [Example 88, 3-methyl-2-(2-((3S,4R or 3R,4S)-3-methyltetrahydro-2H-pyran-4-yl)-2H-pyrazolo[3,4-b]pyrazin-6-yl)-5-(trifluoromethyl)phenol] | 291 |  |
